Among the data in patent publication US10344025B2, “GLS1 inhibitors for treating disease” (Board of Regents, The University of Texas System, priority 2014, dated 2019) are IC50 and EC50 values, retold here.

Assay [1] has as its target purified recombinant human GAC (GLS1) (Homo sapiens (Human), UniProt O94925). In words: GLS1 Enzymatic Activity Assay (dual-coupled enzymatic assay, resorufin/Amplex UltraRed readout).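 Further: glutamate from GAC coupled via glutamate oxidase and peroxidase to resorufin, read as fluorescence (ex 530, em 590 nm) kinetically or at 20 min, four-parameter logistic IC50 fit.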 Type of assay: biochemical.
The test system of assay [2] is A549 cells. The assay is described as follows: Proliferation Assay (A549 viability, Cell Titer Fluor, 72 hours). Particulars: Homo sapiens, A549, 72 h. Type of assay: cell-based. Put shortly: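 A549 cells seeded at 1000 cells/well, rested 24 h, then exposed to compound in 0.5% DMSO for 72 h at 37 °C. Viability read by Cell Titer Fluor fluorescence; IC50 from four-parameter logistic fit.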

pEC50, pIC50: −log10 of the molar value.

Chain of purified recombinant human GAC (GLS1) (O94925 other isoform, or with tags, fused parts or gaps): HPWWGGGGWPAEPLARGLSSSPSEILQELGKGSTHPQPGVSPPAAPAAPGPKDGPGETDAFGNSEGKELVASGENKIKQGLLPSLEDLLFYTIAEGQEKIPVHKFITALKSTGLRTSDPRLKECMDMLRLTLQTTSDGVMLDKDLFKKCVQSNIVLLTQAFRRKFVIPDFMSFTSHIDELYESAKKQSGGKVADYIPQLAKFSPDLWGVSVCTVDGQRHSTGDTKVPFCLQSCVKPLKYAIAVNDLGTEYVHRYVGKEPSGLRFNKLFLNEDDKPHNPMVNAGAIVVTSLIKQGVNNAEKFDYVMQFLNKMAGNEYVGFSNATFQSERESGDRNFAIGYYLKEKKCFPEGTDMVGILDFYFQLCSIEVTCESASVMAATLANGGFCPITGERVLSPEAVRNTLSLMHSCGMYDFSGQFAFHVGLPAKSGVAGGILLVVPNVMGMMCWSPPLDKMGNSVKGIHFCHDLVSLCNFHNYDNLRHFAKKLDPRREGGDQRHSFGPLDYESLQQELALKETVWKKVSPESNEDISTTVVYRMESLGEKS

Usually pIC50 stands for −log10 of the IC50, conventionally taken in molar units. As a reminder, the pEC50 is −log10 of the EC50, conventionally taken in molar units. On to `CNC(=O)c1cn(CCC(F)Cn2cc(C(=O)NCc3cc(C(F)(F)F)ccn3)nn2)nn1` (stereo not drawn) [Example 475, 1-(3-fluoro-4-(4-((4-(trifluoromethyl)pyridin-2-yl)methylcarbamoyl)-1H-1,2,3-triazol-1-yl)butyl)-N-methyl-1H-1,2,3-triazole-4-carboxamide], for which the pIC50 in assay [1] is 6.30 to 7.00. In assay [2], the negative logarithm of the EC50 (pEC50) was 6.30 to 7.00.
On to `O=C(NCc1cncc(C(F)(F)F)c1)c1cn(CCC(F)Cn2cc(C(=O)NCc3cc(C(F)(F)F)ccn3)nn2)nn1` (stereo not drawn) [Example 476, 1-{2-fluoro-4-[4-({[5-(trifluoromethyl)pyridin-3-yl]methyl}carbamoyl)-1H-1,2,3-triazol-1-yl]butyl}-N-{[4-(trifluoromethyl)pyridin-2-yl]methyl}-1H-1,2,3-triazole-4-carboxamide], for which the pIC50 in assay [1] was greater than 7.00. The molecule also showed a pEC50 in assay [2] greater than 7.00.
For the molecule `O=C(NCc1cccc(OC(F)(F)F)c1)c1cn(CCC(F)Cn2cc(C(=O)NCc3cncc(C(F)(F)F)c3)nn2)nn1` (stereo not drawn) [Example 477, 1-{2-fluoro-4-[4-({[3-(trifluoromethoxy)phenyl]methyl}carbamoyl)-1H-1,2,3-triazol-1-yl]butyl}-N-{[5-(trifluoromethyl)pyridin-3-yl]methyl}-1H-1,2,3-triazole-4-carboxamide], in assay [1], the pIC50 is greater than 7.00. The molecule further showed a pEC50 in assay [2] greater than 7.00.
As to `O=C(NCc1cncc(C(F)(F)F)c1)c1cn(CCC(F)Cn2cc(C(=O)NCc3cccc(OC(F)(F)F)c3)nn2)nn1` (stereo not drawn) [Example 478, 1-{3-fluoro-4-[4-({[3-(trifluoromethoxy)phenyl]methyl}carbamoyl)-1H-1,2,3-triazol-1-yl]butyl}-N-{[5-(trifluoromethyl)pyridin-3-yl]methyl}-1H-1,2,3-triazole-4-carboxamide], in assay [1], the pIC50 is greater than 7.00. In addition, the pEC50 in assay [2] was greater than 7.00.
For the molecule `O=C(NCc1cc(OC(F)(F)F)ccc1F)c1cn(CCC(F)Cn2cc(C(=O)NCc3cncc(C(F)(F)F)c3)nn2)nn1` (stereo not drawn) [Example 479, 1-{2-fluoro-4-[4-({[2-fluoro-5-(trifluoromethoxy)phenyl]methyl}carbamoyl)-1H-1,2,3-triazol-1-yl]butyl}-N-{[5-(trifluoromethyl)pyridin-3-yl]methyl}-1H-1,2,3-triazole-4-carboxamide], in assay [1], the negative logarithm of the IC50 (pIC50) was greater than 7.00. The pEC50 in assay [2] is greater than 7.00.
Regarding `O=C(NCc1cncc(C(F)(F)F)c1)c1cn(CC(F)CCc2nnc(C(=O)NCc3cccc(C(F)(F)F)c3)s2)nn1` (stereo not drawn) [Example 480, 5-{3-fluoro-4-[4-({[5-(trifluoromethyl)pyridin-3-yl]methyl}carbamoyl)-1H-1,2,3-triazol-1-yl]butyl}-N-{[3-(trifluoromethyl)phenyl]methyl}-1,3,4-thiadiazole-2-carboxamide], in assay [1], the negative logarithm of the IC50 (pIC50) is greater than 7.00. Moreover, in assay [2], the pEC50 was greater than 7.00.
Turning to `O=C(NCc1ccc(C2CC2)nc1)c1cn(CC(F)CCc2nnc(C(=O)NCc3cccc(C(F)(F)F)c3)s2)nn1` (stereo not drawn) [Example 481, 5-[4-(4-{[(6-cyclopropylpyridin-3-yl)methyl]carbamoyl}-1H-1,2,3-triazol-1-yl)-3-fluorobutyl]-N-{[3-(trifluoromethyl)phenyl]methyl}-1,3,4-thiadiazole-2-carboxamide], the pIC50 in assay [1] was greater than 7.00. Also, the pEC50 in assay [2] was greater than 7.00.
Consider `O=C(NCc1cncc(C(F)(F)F)c1)c1cn(CC(F)CCc2nnc(C(=O)NCc3cccc(OC(F)(F)F)c3)s2)nn1` (stereo not drawn) [Example 482, 5-{3-fluoro-4-[4-({[5-(trifluoromethyl)pyridin-3-yl]methyl}carbamoyl)-1H-1,2,3-triazol-1-yl]butyl}-N-{[3-(trifluoromethoxy)phenyl]methyl}-1,3,4-thiadiazole-2-carboxamide], for which, in assay [1], the pIC50 is greater than 7.00. The pEC50 in assay [2] is greater than 7.00.
In the case of `O=C(NCc1cccc(OC(F)(F)F)c1)c1cn(CC(F)CCc2nnc(C(=O)NCc3cncc(C(F)(F)F)c3)s2)nn1` (stereo not drawn) [Example 483, 5-{3-fluoro-4-[4-({[3-(trifluoromethoxy)phenyl]methyl}carbamoyl)-1H-1,2,3-triazol-1-yl]butyl}-N-{[5-(trifluoromethyl)pyridin-3-yl]methyl}-1,3,4-thiadiazole-2-carboxamide], the pIC50 in assay [1] was greater than 7.00. Moreover, in assay [2], the pEC50 was greater than 7.00.
Take `O=C(NCc1cccc(C(F)(F)F)c1)c1cn(CC(F)CCc2nnc(C(=O)NCc3cncc(C(F)(F)F)c3)s2)nn1` (stereo not drawn) [Example 484, 5-{3-fluoro-4-[4-({[3-(trifluoromethyl)phenyl]methyl}carbamoyl)-1H-1,2,3-triazol-1-yl]butyl}-N-{[5-(trifluoromethyl)pyridin-3-yl]methyl}-1,3,4-thiadiazole-2-carboxamide]: the pIC50 in assay [1] is greater than 7.00. In assay [2], this molecule showed a pEC50 greater than 7.00.
With `O=C(NCc1cncc(C(F)(F)F)c1)c1cn(CC(F)CCc2nnc(C(=O)NCc3cc(C(F)(F)F)ccn3)s2)nn1` (stereo not drawn) [Example 485, 5-{3-fluoro-4-[4-({[5-(trifluoromethyl)pyridin-3-yl]methyl}carbamoyl)-1H-1,2,3-triazol-1-yl]butyl}-N-{[4-(trifluoromethyl)pyridin-2-yl]methyl}-1,3,4-thiadiazole-2-carboxamide], the pIC50 in assay [1] is greater than 7.00. In addition, the pEC50 in assay [2] is greater than 7.00.
With `O=C(Cc1cccc(OC(F)(F)F)c1)Nc1cn(CC(F)CCn2cc(C(=O)NCc3ccc(C(F)(F)F)cn3)nn2)nn1` (stereo not drawn) [Example 486, 1-[3-fluoro-4-(4-{2-[3-(trifluoromethoxy)phenyl]acetamido}-1H-1,2,3-triazol-1-yl)butyl]-N-{[5-(trifluoromethyl)pyridin-2-yl]methyl}-1H-1,2,3-triazole-4-carboxamide], in assay [1], the pIC50 is greater than 7.00. Further, in assay [2], the pEC50 was greater than 7.00.
Take `O=C(Cc1cccc(OC(F)(F)F)c1)Nc1cn(CC(F)CCn2cc(C(=O)NCc3cccc(C(F)(F)F)n3)nn2)nn1` (stereo not drawn) [Example 487, 1-[3-fluoro-4-(4-{2-[3-(trifluoromethoxy)phenyl]acetamido}-1H-1,2,3-triazol-1-yl)butyl]-N-{[6-(trifluoromethyl)pyridin-2-yl]methyl}-1H-1,2,3-triazole-4-carboxamide]: the pIC50 in assay [1] was greater than 7.00. The pEC50 in assay [2] was greater than 7.00.
Turning to `O=C(NCc1cncc(C(F)(F)F)c1)c1cn(CC(F)CCc2nnc(C(=O)NCc3ccc(C(F)(F)F)cn3)s2)nn1` (stereo not drawn) [Example 488, 5-{3-fluoro-4-[4-({[5-(trifluoromethyl)pyridin-3-yl]methyl}carbamoyl)-1H-1,2,3-triazol-1-yl]butyl}-N-{[5-(trifluoromethyl)pyridin-2-yl]methyl}-1,3,4-thiadiazole-2-carboxamide], the pIC50 in assay [1] is greater than 7.00. This molecule also showed a negative-log EC50 (pEC50) in assay [2] greater than 7.00.
Turning to `O=C(NCc1cc(C(F)(F)F)ccn1)c1cn(CC(F)CCc2nnc(C(=O)NCc3ccc(C(F)(F)F)cn3)s2)nn1` (stereo not drawn) [Example 489, 5-{3-fluoro-4-[4-({[4-(trifluoromethyl)pyridin-2-yl]methyl}carbamoyl)-1H-1,2,3-triazol-1-yl]butyl}-N-{[5-(trifluoromethyl)pyridin-2-yl]methyl}-1,3,4-thiadiazole-2-carboxamide], the pIC50 in assay [1] was greater than 7.00. Besides, in assay [2], the pEC50 was greater than 7.00.
In the case of `O=C(NCc1cncc(C(F)(F)F)c1)c1cn(CC(F)CCc2nnc(C(=O)NCc3cccc(C(F)(F)F)n3)s2)nn1` (stereo not drawn) [Example 490, 5-{3-fluoro-4-[4-({[5-(trifluoromethyl)pyridin-3-yl]methyl}carbamoyl)-1H-1,2,3-triazol-1-yl]butyl}-N-{[6-(trifluoromethyl)pyridin-2-yl]methyl}-1,3,4-thiadiazole-2-carboxamide], the pIC50 in assay [1] was greater than 7.00. The molecule further had a pEC50 in assay [2] greater than 7.00.
As to `O=C(NCc1cc(C(F)(F)F)ccn1)c1cn(CC(F)CCc2nnc(C(=O)NCc3cccc(C(F)(F)F)n3)s2)nn1` (stereo not drawn) [Example 491, 5-{3-fluoro-4-[4-({[4-(trifluoromethyl)pyridin-2-yl]methyl}carbamoyl)-1H-1,2,3-triazol-1-yl]butyl}-N-{[6-(trifluoromethyl)pyridin-2-yl]methyl}-1,3,4-thiadiazole-2-carboxamide], in assay [1], the pIC50 was greater than 7.00. Besides, in assay [2], the pEC50 is greater than 7.00.
Consider `O=C(NCc1ccc(C(F)(F)F)cn1)c1cn(CC(F)CCc2nnc(C(=O)NCc3cccc(C(F)(F)F)n3)s2)nn1` (stereo not drawn) [Example 492, 5-{3-fluoro-4-[4-({[5-(trifluoromethyl)pyridin-2-yl]methyl}carbamoyl)-1H-1,2,3-triazol-1-yl]butyl}-N-{[6-(trifluoromethyl)pyridin-2-yl]methyl}-1,3,4-thiadiazole-2-carboxamide], for which the pIC50 in assay [1] is greater than 7.00. This molecule also had a pEC50 in assay [2] of 6.30 to 7.00.
For `O=C(Cc1cccc(OC(F)(F)F)c1)Nc1nnc(CCC(F)Cn2cc(C(=O)NCc3ccc(C(F)(F)F)cn3)nn2)s1` (stereo not drawn) [Example 493, 1-[2-fluoro-4-(5-{2-[3-(trifluoromethoxy)phenyl]acetamido}-1,3,4-thiadiazol-2-yl)butyl]-N-{[5-(trifluoromethyl)pyridin-2-yl]methyl}-1H-1,2,3-triazole-4-carboxamide], in that order: greater than 7.00 and greater than 7.00.
As for `O=C(Cc1cccc(OC(F)(F)F)c1)Nc1nnc(CCC(F)Cn2cc(C(=O)NCc3cccc(C(F)(F)F)n3)nn2)s1` (stereo not drawn) [Example 494, 1-[2-fluoro-4-(5-{2-[3-(trifluoromethoxy)phenyl]acetamido}-1,3,4-thiadiazol-2-yl)butyl]-N-{[6-(trifluoromethyl)pyridin-2-yl]methyl}-1H-1,2,3-triazole-4-carboxamide], the pIC50 in assay [1] was greater than 7.00. In assay [2], the pEC50 is greater than 7.00.
Turning to `O=C(Cc1cccc(OC(F)(F)F)c1)Nc1nnc(CCC(F)Cn2cc(C(=O)NCc3cc(C(F)(F)F)ccn3)nn2)s1` (stereo not drawn) [Example 495, 1-[2-fluoro-4-(5-{2-[3-(trifluoromethoxy)phenyl]acetamido}-1,3,4-thiadiazol-2-yl)butyl]-N-{[4-(trifluoromethyl)pyridin-2-yl]methyl}-1H-1,2,3-triazole-4-carboxamide], in assay [1], the pIC50 was greater than 7.00. This molecule also showed a pEC50 in assay [2] greater than 7.00.
